The results in this text go back to patent publication US20230066011A1, “PYRROLOPYRIMIDINE DERIVATIVE, AND PHARMACEUTICAL COMPOSITION FOR PREVENTING OR TREATING PROTEIN KINASE-RELATED DISEASE COMPRISING SAME AS ACTIVE INGREDIENT” (VORONOI CO., LTD., priority 2019, published 2023).

A value given as a limit tells only on which side of the number the result lay.

Assay [1] concerns the target DYRK1 (Homo sapiens, UniProt Q13627). Briefly: Kinase HotSpot service (Reaction Biology Corporation), DYRK1. The format is biochemical. The following applies: ATP 10 uM, read-out: DYRK1 IC50 (values indicated by *). The procedure:
The inhibitory activities of the compounds were measured at a 3-fold concentration gradient starting from a maximum compound concentration of […], and the values measured using the Kinase HotSpot service (Reaction Biology Corporation) are indicated by an asterisk (*).
All the experimental methods were performed as provided by the Kinase HotSpot Customer Protocol (http://www.reactionbiology.com//Kinase_Assay_Protocol).

The test system of assay [2] is MDA-MB-468 cell line. Nature of the assay: Inhibition of proliferation of MDA-MB-468 cancer cells (Cell Titer-Glo). It counts as cell-based. The method, boiled down: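 A 72-hour treatment with compound (eleven final concentrations, 3-fold apart, top 10 μM) of cells seeded at 2,000 per well preceded a Cell Titer-Glo luminescence read, from which GI50 was obtained.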
Background: Cellular ATP, detected with luciferase, serves as a proxy for viable cell number.

For assay [3], the target named is T1, human GST-CLK1 (Homo sapiens, UniProt P49759).
T1 construct: purified human GST-CLK1 (129-end, SignalChem) enzyme; purchased SignalChem
T1 sequence (P49759 129-484 limits assumed): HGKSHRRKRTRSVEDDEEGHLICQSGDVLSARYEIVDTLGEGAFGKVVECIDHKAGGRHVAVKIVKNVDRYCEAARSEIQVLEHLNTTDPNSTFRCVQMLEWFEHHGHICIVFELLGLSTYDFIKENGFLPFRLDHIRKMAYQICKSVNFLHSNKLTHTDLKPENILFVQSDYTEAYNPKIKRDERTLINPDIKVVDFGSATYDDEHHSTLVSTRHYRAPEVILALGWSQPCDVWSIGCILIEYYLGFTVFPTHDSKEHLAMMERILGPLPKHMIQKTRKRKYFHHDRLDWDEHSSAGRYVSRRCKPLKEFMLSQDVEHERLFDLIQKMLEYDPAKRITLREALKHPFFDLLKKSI
Nature of the assay: GST-CLK1 enzyme inhibition, ADP-Glo kinase assay. It counts as biochemical. The following applies: ATP 10 μM, GST-CLK1 129-end. The gist of the method: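 ADP-Glo luminescence read-out, relative to untreated solvent control, gave IC50 (nM) from triplicate data sets. Reactions ran an hour at 25° C with 3 ng GST-CLK1 (residues 129-end), 10 μM ATP and specific substrate in Tris-HCl pH 7.4 buffer with MgCl2, BSA and DTT.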

For assay [4], the target named is LRRK2 (Homo sapiens, UniProt Q5S007). Nature of the assay: LRRK2 enzyme inhibition, ADP-Glo kinase assay. It counts as biochemical. The following applies: ATP 10 μM. Set-up: purchased Invitrogen PR8604B. The method, boiled down: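 ADP-Glo luminescent read-out of ADP formed by purified human LRRK2 enzyme (25 ng), 10 μM ATP, 0.2 μg substrate, 25° C for 2 h, Tris-HCl pH 7.4 buffer with MgCl2, BSA, DTT. Inhibition versus untreated solvent control over twelve final concentrations (50 μM downward) gives IC50.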
Chain of LRRK2 (Q5S007 970-2527 limits assumed): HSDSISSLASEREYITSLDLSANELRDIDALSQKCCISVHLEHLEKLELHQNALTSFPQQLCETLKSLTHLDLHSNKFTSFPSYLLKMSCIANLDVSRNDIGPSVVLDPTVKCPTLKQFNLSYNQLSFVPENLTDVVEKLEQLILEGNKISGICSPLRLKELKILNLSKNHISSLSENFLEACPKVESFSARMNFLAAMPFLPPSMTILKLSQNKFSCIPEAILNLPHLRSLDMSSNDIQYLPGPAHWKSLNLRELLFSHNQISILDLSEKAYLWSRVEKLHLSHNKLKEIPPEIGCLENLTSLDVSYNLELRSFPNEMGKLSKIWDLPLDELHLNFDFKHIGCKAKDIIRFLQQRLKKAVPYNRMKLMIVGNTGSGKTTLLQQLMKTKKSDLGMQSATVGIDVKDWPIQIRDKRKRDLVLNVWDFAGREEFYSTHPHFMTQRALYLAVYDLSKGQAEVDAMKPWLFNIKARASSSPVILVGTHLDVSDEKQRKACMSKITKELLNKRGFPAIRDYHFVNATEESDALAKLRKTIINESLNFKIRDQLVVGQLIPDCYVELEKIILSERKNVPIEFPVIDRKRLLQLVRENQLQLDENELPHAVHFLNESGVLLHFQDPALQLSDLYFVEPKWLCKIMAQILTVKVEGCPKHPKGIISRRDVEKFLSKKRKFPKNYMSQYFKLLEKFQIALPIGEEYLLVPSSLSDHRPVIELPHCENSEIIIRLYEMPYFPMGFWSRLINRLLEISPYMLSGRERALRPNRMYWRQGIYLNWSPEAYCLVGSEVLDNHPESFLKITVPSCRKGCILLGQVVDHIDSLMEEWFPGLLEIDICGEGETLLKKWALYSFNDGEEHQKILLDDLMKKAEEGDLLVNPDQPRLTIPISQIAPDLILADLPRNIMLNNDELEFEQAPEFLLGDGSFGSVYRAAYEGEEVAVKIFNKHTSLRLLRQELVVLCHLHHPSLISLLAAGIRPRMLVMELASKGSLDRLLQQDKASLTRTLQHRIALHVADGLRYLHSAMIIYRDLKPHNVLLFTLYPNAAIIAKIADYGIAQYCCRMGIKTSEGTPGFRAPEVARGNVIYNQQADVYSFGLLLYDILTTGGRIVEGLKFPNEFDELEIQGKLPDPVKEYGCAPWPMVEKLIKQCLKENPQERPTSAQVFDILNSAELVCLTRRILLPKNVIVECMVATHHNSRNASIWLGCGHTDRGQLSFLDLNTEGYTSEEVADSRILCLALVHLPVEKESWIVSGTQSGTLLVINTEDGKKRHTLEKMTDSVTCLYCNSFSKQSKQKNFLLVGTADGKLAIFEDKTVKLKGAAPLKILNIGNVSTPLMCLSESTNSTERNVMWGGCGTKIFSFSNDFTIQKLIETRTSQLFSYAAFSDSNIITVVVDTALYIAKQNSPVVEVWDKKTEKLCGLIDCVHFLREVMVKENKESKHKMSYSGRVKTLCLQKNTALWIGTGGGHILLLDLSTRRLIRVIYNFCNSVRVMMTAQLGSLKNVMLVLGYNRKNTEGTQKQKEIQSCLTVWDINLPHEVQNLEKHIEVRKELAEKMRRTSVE
A general note: In ADP-Glo the light output rises with the ADP produced.

In assay [5] the test system is TNF-α. Briefly: Inhibition of LPS-induced TNF-α secretion of THP-1 monocytes (ELISA). Conditions: compound 0.5 μM, LPS 500 ng/mL, 24 hours; for inhibition at 0.5 µM: Homo sapiens, THP-1, read-out: THP-1/TNF-α (% inhib). The format is cell-based, human. The procedure: (§1) To evaluate an inhibitory effect on cytokine secretion of monocytes, THP-1 cells (ATCC, #TIB-202) as a human-derived monocyte line were cultured in an RPMI-1640 (Hyclone, SH30027.01) medium supplemented with 10% fetal bovine serum (Hyclone, SH30084.03), 1% penicillin streptomycin (Welgene, LS202-02), and 50 μM 2-mercaptoethanol (Gibco, #21985023). In the test, the cells were seeded in a 48-well plate (SPL, #30048) at a density of 1.5 to 2×10^5 cells/250 μL per well, and cultured at 37° C. for 16 hours in a 5% CO2 incubator. Thereafter, the compound was diluted with DMSO so that the final concentration of the compound was 0.5 μM. Then, the cells were treated with the diluted compound before an hour of treatment with lipopolysaccharides (LPS) (Sigma, #L6529). After the treatment with the compound, the cells were treated with LPS so that the final concentration was 500 ng/mL. Then, a cell culture broth was collected after 24 hours of culture, and levels of cytokine IL-6 (R&D Systems, #D6050) and TNF-α (R&D Systems, #DTA00D) comprised in the culture broth were measured using respective ELISA kits. After an experiment was performed according to the manufacturer's guidelines, cell analysis was performed by measuring the optical density at 450 nm using a microplate reader.
A general note: In an ELISA, binding on a coated surface is turned into a signal by an enzyme label.

Assay [6] deals with IL-6. Nature of the assay: Inhibition of LPS-induced IL-6 secretion of THP-1 monocytes (ELISA). Conditions: compound 0.5 μM, LPS 500 ng/mL, 24 hours; for inhibition at 0.5 µM: Homo sapiens, THP-1, read-out: THP1/IL6 (% inhib). The format is cell-based, human. The procedure: as §1
Assay [7] concerns the target LRRK2 (G2019S) (Homo sapiens, UniProt Q5S007, G2019S). Nature of the assay: LRRK2 G2019S enzyme inhibition, ADP-Glo kinase assay. On the set-up: purchased SignalChem L10-12GG. The format is biochemical. The following applies: ATP 25 μM. The gist of the method:
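IC50 derived from luminescent ADP-Glo readout against untreated solvent control, twelve final compound concentrations from 50 μM downward. Reaction: recombinant human LRRK2 G2019S enzyme, 25 μM ATP, substrate, pH 7.4 Tris buffer with MgCl2/BSA/DTT, 25° C. for 2 hours.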

Assay [8] relates to human DYRK1A and tau. Nature of the assay: Inhibition of tau phosphorylation, ClariCELL Kinase Cell-Based Assay, HEK 293 cells expressing human DYRK1A and tau. Conditions: for inhibition at 1 µM: HEK293, read-out: % inhibition at 1 uM, tau phosphorylation, compound 1 uM; for inhibition at 0.25 µM / inhibition at 0.5 µM: HEK293, tau phosphorylation. The gist of the method:
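Cell-based service assay: HEK 293 cells transiently expressing human DYRK1A and tau were treated with compound and lysed. Released tau was plate-captured and its phosphorylation quantified by ELISA with a phospho-tau-specific antibody.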

In assay [9] the target is T2, human GST-DYRK1A (Homo sapiens, UniProt Q13627).
T2 construct: purified human GST-DYRK1A (full length, Thermo Scientifics) enzyme; purchased Thermo Scientifics
Briefly: GST-DYRK1A enzyme inhibition, ADP-Glo kinase assay. The format is biochemical. Conditions: ATP 10 μM, GST-DYRK1A full length, read-out: DYRK1 IC50. The gist of the method:
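Full-length enzyme (10 ng) was incubated with 10 μM ATP and a specific substrate for 1 h at 25 °C in 40 mM Tris-HCl pH 7.4, 20 mM MgCl2, 0.5 mg/mL BSA, 50 μM DTT. Luminescence was read against a solvent control, and IC50 values were derived from 3 data sets.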

Where [10] appears, read: Homo sapiens, MDA-MB-468, 72 hours.

Chain of LRRK2 (G2019S) (Q5S007 970-2527 G2019S limits assumed): as the sequence (Q5S007 970-2527 limits assumed) above, with G1050S counted along it

For `N#Cc1c[nH]c2nc(Nc3ccc(C(=O)N4CCOCC4)c4c3OCCO4)nc(C3CC3)c12` [Example 220, 4-cyclopropyl-2-((8-(morpholine-4-carbonyl)-2,3-dihydrobenzo[b][1,4]dioxin-5-yl)amino)-7H-pyrrolo[2,3-d]pyrimidine-5-carbonitrile], the half-maximal inhibitory concentration (IC50) in assay [1], in assay [3] and in [4] was less than 100 nM each time. For the same compound, the GI50 (in general, the concentration giving 50% growth inhibition) in [2] (setting [10]) was in the range of 101 to 300 nM.

For `COc1cc(P(C)(C)=O)ccc1Nc1nc(C2CC2)c2c(C(F)(F)F)c[nH]c2n1` [Example 229, (4-((4-cyclopropyl-5-(trifluoromethyl)-7H-pyrrolo[2,3-d]pyrimidin-2-yl)amino)-3-methoxyphenyl)dimethylphosphine oxide], the results for the half-inhibitory concentration (IC50) in assay [1] and in [3] were less than 100 nM and 101 to 300 nM, respectively.

On to `COc1cc(P2(=O)CCN(C3CC3)CC2)ccc1Nc1nc(C2CC2)c2c(C(F)(F)F)c[nH]c2n1` [Example 394, 1-cyclopropyl-4-(4-((4-cyclopropyl-5-(trifluoromethyl)-7H-pyrrolo[2,3-d]pyrimidin-2-yl)amino)-3-methoxyphenyl)-1,4-azaphosphinane4-oxide], for which the half-maximal inhibitory concentration (IC50) (in general, the concentration that inhibits the measured activity by half) is less than 100 nM in assay [1], 301 to 1000 nM in assay [3] and less than 100 nM in assay [4]. Moreover, in assay [2] (setting [10]), the GI50 was in the range of 301 to 1000 nM.

For `CCc1nc(Nc2ccc(C(=O)N3CCC(N4CCOCC4)CC3)c3c2OCCO3)nc2[nH]cc(C(F)(F)F)c12` [Example 395, (8-((4-ethyl-5-(trifluoromethyl)-7H-pyrrolo[2,3-d]pyrimidin-2-yl)amino)-2,3-dihydrobenzo [b][1,4]dioxin-5-yl)(4-morpholino-piperidin-1-yl)methanone], the results for the IC50 in assay [1], in [3] and in [4] were less than 100 nM, 101 to 300 nM and less than 100 nM, respectively.

Regarding `CCc1nc(Nc2ccc(P3(=O)CCN(C4CC4)CC3)cc2OC)nc2[nH]cc(C(F)(F)F)c12` [Example 396, 1-cyclopropyl-4-(4-((4-ethyl-5-(trifluoromethyl)-7H-pyrrolo[2,3-d]pyrimidin-2-yl)amino)-3-methoxyphenyl)-1,4-azaphosphinane-4-oxide], the IC50 in [1] is less than 100 nM; in assay [3], 301 to 1000 nM; in assay [4] it was 101 to 300 nM.

Take `CCCNc1nc(Nc2ccc(C(=O)N3CCN(C4COC4)CC3)c3c2OCCO3)nc2[nH]cc(C(F)(F)F)c12` [Example 402, (4-(oxetan-3-yl)piperazin-1-yl)(8-((4-(propylamino)-5-(trifluromethyl)-7H-pyrrolo[2,3-d]pyrimidin-2-yl)amino)-2,3-dihydrobenzo[b] [1,4]dioxin-5-yl)methanone]: the GI50 in assay [2] (72 hours) was in the range of 301 to 1000 nM. Moreover, the “THP-1/TNF-α (% inhib)” value in assay [5] was determined as 1.4 % inhib. For the same compound, the “THP1/IL6 (% inhib)” value in assay [6] worked out at 18.2 % inhib. The concentration for half-maximal inhibition (IC50) in [7], in assay [9] and in assay [3] was less than 100 nM in each case. Besides, the % inhibition (usually the share of the control response that was lost under treatment) at 0.25 uM in assay [8] (tau phosphorylation, compound 0.25 uM) is recorded as 7.9%. Besides, in assay [8] (tau phosphorylation, compound 0.5 uM), the “% inhibition at 0.5 uM” value is recorded as 26.5%. Also, in assay [8] (tau phosphorylation, compound 1 uM), the “% inhibition at 1 uM” value is on record as 61.7%.

Regarding `CNc1nc(Nc2ccc(C(=O)N3C[C@@H]4C[C@H]3CO4)c3c2OCCO3)nc2[nH]cc(C(F)(F)F)c12` [Example 408, ((1S,4S)-2-oxa-5-azabicyclo[2.2.1]heptan-5-yl)(8-((4-(methylamino)-5-(trifluoromethyl)-7H-pyrrolo[2,3-d]pyrimidin-2-yl)amino)-2,3-dihydrobenzo[b] [1,4]dioxin-5-yl)methanone], the values for the inhibition at 0.5 µM in assay [5], in [6] and in assay [8] (compound 0.5 uM) were 4.3%, 19.5% and 40.3%, respectively. For the same compound, the inhibition at 1 µM in assay [8] came out at 48.5%. Moreover, the inhibition at 0.25 µM in assay [8] (compound 0.25 uM) turned out to be 20.6%. Besides, the IC50 in assay [9], in assay [3] and in assay [4] was less than 100 nM throughout.

Consider `O=C(c1ccc(Nc2nc(N[C@H]3CCOC3)c3c(C(F)(F)F)c[nH]c3n2)c2c1OCCO2)N1CCN(C2COC2)CC1` [Example 418, (S)-(4-(oxetan-3-yl)piperazin-1-yl)(8-((4-((tetra-hydrofuran-3-yl)amino)-5-(trifluoromethyl)-7H-pyrrolo[2,3-d]pyrimidin-2-yl)amino)-2,3-dihydrobenzo[b] [1,4]dioxin-5-yl)methanone], for which the inhibition at 0.5 µM in assay [5] came out at 8.5%; in assay [6], 35.5%; in [8] (compound 0.5 uM), 55.4%. Further, the IC50 in [7], in [9] and in [3] was less than 100 nM in each case. In [8], the inhibition at 1 µM is 80.2%. For the same compound, in assay [8] (compound 0.25 uM), the inhibition at 0.25 µM came out at 46.2%.

As to `O=S(=O)(c1ccc(Nc2nc(C3CC3)c3c(C(F)(F)F)c[nH]c3n2)c2c1OCCO2)N1CCOCC1` [Example 470, 4-cyclopropyl-N-(8-(morpho-linosulfonyl)-2,3-dihydrobenzo [b][1,4]dioxin-5-yl)-5-(trifluoromethyl)-7H-pyrrolo[2,3-d]pyrimidin-2-amine], the results for the IC50 in [1] and in assay [3] were less than 100 nM and 301 to 1000 nM, respectively. Moreover, the inhibition at 1 µM in assay [8] came to 29.1%. The inhibition at 0.25 µM in assay [8] (compound 0.25 uM) came out at 5.8%. This compound also yielded an inhibition at 0.5 µM in assay [8] (compound 0.5 uM) of 19.2%.

On to `O=C(c1ccc(Nc2nc(C3CC3)c3c(C(F)(F)F)c[nH]c3n2)c2c1CCO2)N1CC[C@@H](N2CCOCC2)C1` [Example 471, (R)-(7-((4-cyclopropyl-5-(trifluoromethyl)-7H-pyrrolo[2,3-d]pyrimidin-2-yl)amino)-2,3-dihydrobenzo-furan-4-yl)(3-morpholino-pyrrolidin-1-yl)methanone], for which the IC50 in [1] and in [3] was less than 100 nM in each case. Besides, the inhibition at 1 µM in assay [8] was 42.8%. The compound further showed an inhibition at 0.25 µM in [8] (compound 0.25 uM) of 3.9%. The same compound registered an inhibition at 0.5 µM in [8] (compound 0.5 uM) of 29.6%.
